# In ChEMBL document CHEMBL4665869, “New thiazolopyrimidine as anticancer agents: Synthesis, biological evaluation, DNA binding, molecular modeling and ADMET study” (Bioorg Med Chem Lett, 2020):
# Active and inactive are the calls of the source. The calls are words filed in the database; no cut-off is given here.
# Key:
# U-251 = assay: Growth inhibition of human U-251 cells at 10 uM relative to control; format: functional; conditions: read-out: GI
# SK-MEL-2 = assay: Growth inhibition of human SK-MEL-2 cells at 10 uM relative to control; format: functional
# RXF 393 = assay: Growth inhibition of human RXF 393 cells at 10 uM relative to control; format: functional
# IGROV-1 = assay: Growth inhibition of human IGROV-1 cells at 10 uM relative to control; format: functional
# UACC-62 = assay: Growth inhibition of human UACC-62 cells at 10 uM relative to control; format: functional
# BT-549 = assay: Growth inhibition of human BT-549 cells at 10 uM relative to control; format: functional
# MOLT-4 = assay: Growth inhibition of human MOLT-4 cells at 10 uM relative to control; format: functional
# A498 = assay: Growth inhibition of human A498 cells at 10 uM relative to control; format: functional
# 786-0 = assay: Growth inhibition of human 786-0 cells at 10 uM relative to control; format: functional; conditions: read-out: GI
# HOP-62 = assay: Growth inhibition of human HOP-62 cells at 10 uM relative to control; format: functional; conditions: read-out: GI
# HCC 2998 = assay: Growth inhibition of human HCC 2998 cells at 10 uM relative to control; format: functional
# KM12 = assay: Growth inhibition of human KM12 cells at 10 uM relative to control; format: functional; conditions: read-out: GI
# SF-539 = assay: Growth inhibition of human SF-539 cells at 10 uM relative to control; format: functional
# SN12C = assay: Growth inhibition of human SN12C cells at 10 uM relative to control; format: functional; conditions: read-out: GI
# [1] = system: Panel NCI-60 (60 carcinoma cell lines); assay: Growth inhibition of human NCI60 cells; format: functional
# K562 = assay: Growth inhibition of human K562 cells at 10 uM relative to control; format: functional; conditions: read-out: GI
# HCT-15 = assay: Growth inhibition of human HCT-15 cells at 10 uM relative to control; format: functional; conditions: read-out: GI
# MCF7 = assay: Growth inhibition of human MCF7 cells at 10 uM relative to control; format: functional; conditions: read-out: GI
# NCI-H460 = assay: Growth inhibition of human NCI-H460 cells at 10 uM relative to control; format: functional; conditions: read-out: GI
# TK-10 = assay: Growth inhibition of human TK-10 cells at 10 uM relative to control; format: functional; conditions: read-out: GI
# MDA-MB-435 = assay: Growth inhibition of human MDA-MB-435 cells at 10 uM relative to control; format: functional
# SF-268 = assay: Growth inhibition of human SF-268 cells at 10 uM relative to control; format: functional
# COLO 205 = assay: Growth inhibition of human COLO 205 cells at 10 uM relative to control; format: functional
# MDA-MB-468 = assay: Growth inhibition of human MDA-MB-468 cells at 10 uM relative to control; format: functional
# NCI-H226 = assay: Growth inhibition of human NCI-H226 cells at 10 uM relative to control; format: functional
# A549 = assay: Growth inhibition of human A549 cells at 10 uM relative to control; format: functional
# SF-295 = assay: Growth inhibition of human SF-295 cells at 10 uM relative to control; format: functional
# SNB-75 = assay: Growth inhibition of human SNB-75 cells at 10 uM relative to control; format: functional
# CAKI-1 = assay: Growth inhibition of human CAKI-1 cells at 10 uM relative to control; format: functional
# SNB-19 = assay: Growth inhibition of human SNB-19 cells at 10 uM relative to control; format: functional
# OVCAR-8 = assay: Growth inhibition of human OVCAR-8 cells at 10 uM relative to control; format: functional
# UACC-257 = assay: Growth inhibition of human UACC-257 cells at 10 uM relative to control; format: functional; conditions: read-out: GI
# ACHN = assay: Growth inhibition of human ACHN cells at 10 uM relative to control; format: functional
# HCT-116 = assay: Growth inhibition of human HCT-116 cells at 10 uM relative to control; format: functional; conditions: read-out: GI
# NCI-H522 = assay: Growth inhibition of human NCI-H522 cells at 10 uM relative to control; format: functional
# Malme-3M = assay: Growth inhibition of human Malme-3M cells at 10 uM relative to control; format: functional
# MDA-MB-231 = assay: Growth inhibition of human MDA-MB-231 cells at 10 uM relative to control; format: functional; conditions: read-out: GI
# DNA = assay: Displacement of methyl green from DNA (unknown origin) assessed as DNA intercalation after 24 hrs by colorimetric assay; format: nucleic-acid assay
# CCRF-CEM = assay: Growth inhibition of human CCRF-CEM cells at 10 uM relative to control; format: functional
# HOP-92 = assay: Growth inhibition of human HOP-92 cells at 10 uM relative to control; format: functional
# SK-MEL-5 = assay: Growth inhibition of human SK-MEL-5 cells at 10 uM relative to control; format: functional
# UO-31 = assay: Growth inhibition of human UO-31 cells at 10 uM relative to control; format: functional; conditions: read-out: GI
# M14 = assay: Growth inhibition of human M14 cells at 10 uM relative to control; format: functional
# DU-145 = assay: Growth inhibition of human DU-145 cells at 10 uM relative to control; format: functional; conditions: read-out: GI
# T47D = assay: Growth inhibition of human T47D cells at 10 uM relative to control; format: functional
# HL-60(TB) = assay: Growth inhibition of human HL-60(TB) cells at 10 uM relative to control; format: functional
# NCI-H322M = assay: Growth inhibition of human NCI-H322M cells at 10 uM relative to control; format: functional; conditions: read-out: GI
# RPMI-8226 = assay: Growth inhibition of human RPMI-8226 cells at 10 uM relative to control; format: functional
# PC-3 = assay: Growth inhibition of human PC-3 cells at 10 uM relative to control; format: functional; conditions: read-out: GI
# HT-29 = assay: Growth inhibition of human HT-29 cells at 10 uM relative to control; format: functional; conditions: read-out: GI
# Hs-578T = assay: Growth inhibition of human Hs-578T cells at 10 uM relative to control; format: functional
# LOX IMVI = assay: Growth inhibition of human LOX IMVI cells at 10 uM relative to control; format: functional; conditions: read-out: GI
# SK-MEL-28 = assay: Growth inhibition of human SK-MEL-28 cells at 10 uM relative to control; format: functional
# SW-620 = assay: Growth inhibition of human SW-620 cells at 10 uM relative to control; format: functional; conditions: read-out: GI
# OVCAR-5 = assay: Growth inhibition of human OVCAR-5 cells at 10 uM relative to control; format: functional
# OVCAR-4 = assay: Growth inhibition of human OVCAR-4 cells at 10 uM relative to control; format: functional; conditions: read-out: GI
# SK-OV-3 = assay: Growth inhibition of human SK-OV-3 cells at 10 uM relative to control; format: functional; conditions: read-out: GI
# SR = assay: Growth inhibition of human SR cells at 10 uM relative to control; format: functional
# NCI-H23 = assay: Growth inhibition of human NCI-H23 cells at 10 uM relative to control; format: functional; conditions: read-out: GI
# NCI/ADR-RES = assay: Growth inhibition of human NCI/ADR-RES cells at 10 uM relative to control; format: functional; conditions: read-out: GI
smiles,measurement,setting,value
COc1cccc2c1C(=O)c1c(O)c3c(c(O)c1C2=O)C[C@@](O)(C(=O)CO)C[C@@H]3O[C@H]1C[C@H](N)[C@H](O)[C@H](C)O1 [DOXORUBICIN],inhibition of growth at 10 µM,U-251,90.8%
same,growth inhibition (GI),SK-MEL-2,Active
same,growth inhibition (GI),RXF 393,Active
same,growth inhibition (GI),IGROV-1,Active
same,growth inhibition (GI),UACC-62,Active
same,growth inhibition (GI),BT-549,Active
same,growth inhibition (GI),MOLT-4,Active
same,growth inhibition (GI),A498,Active
same,inhibition of growth at 10 µM,786-0,95.5%
same,inhibition of growth at 10 µM,HOP-62,93.1%
same,growth inhibition (GI),HCC 2998,Active
same,inhibition of growth at 10 µM,KM12,95.8%
same,growth inhibition (GI),SF-539,Active
same,inhibition of growth at 10 µM,SN12C,88%
same,GI50,[1],0.15 µM
same,TGI,[1],2.48 µM
same,inhibition of growth at 10 µM,K562,97.9%
same,inhibition of growth at 10 µM,HCT-15,84.8%
same,inhibition of growth at 10 µM,MCF7,96.6%
same,inhibition of growth at 10 µM,NCI-H460,99.4%
same,inhibition of growth at 10 µM,TK-10,74.6%
same,growth inhibition (GI),MDA-MB-435,Active
same,growth inhibition (GI),SF-268,Active
same,growth inhibition (GI),COLO 205,Active
same,growth inhibition (GI),MDA-MB-468,Active
same,growth inhibition (GI),NCI-H226,Active
same,growth inhibition (GI),A549,Active
same,growth inhibition (GI),SF-295,Active
same,growth inhibition (GI),SNB-75,Active
same,growth inhibition (GI),CAKI-1,Active
same,growth inhibition (GI),SNB-19,Active
same,growth inhibition (GI),OVCAR-8,Active
same,inhibition of growth at 10 µM,UACC-257,96.5%
same,growth inhibition (GI),ACHN,Active
same,inhibition of growth at 10 µM,HCT-116,97.2%
same,growth inhibition (GI),NCI-H522,Active
same,growth inhibition (GI),Malme-3M,Active
same,inhibition of growth at 10 µM,MDA-MB-231,96.2%
same,IC50,DNA,31.27 µg/mL
same,growth inhibition (GI),CCRF-CEM,Active
same,growth inhibition (GI),HOP-92,Active
same,growth inhibition (GI),SK-MEL-5,Active
same,inhibition of growth at 10 µM,UO-31,96%
same,growth inhibition (GI),M14,Active
same,inhibition of growth at 10 µM,DU-145,86.8%
same,growth inhibition (GI),T47D,Active
same,growth inhibition (GI),HL-60(TB),Active
same,inhibition of growth at 10 µM,NCI-H322M,86.1%
same,growth inhibition (GI),RPMI-8226,Active
same,inhibition of growth at 10 µM,PC-3,98.7%
same,inhibition of growth at 10 µM,HT-29,95.3%
same,growth inhibition (GI),Hs-578T,Active
same,inhibition of growth at 10 µM,LOX IMVI,94.3%
same,growth inhibition (GI),SK-MEL-28,Active
same,inhibition of growth at 10 µM,SW-620,98.1%
same,growth inhibition (GI),OVCAR-5,Active
same,inhibition of growth at 10 µM,OVCAR-4,85.9%
same,inhibition of growth at 10 µM,SK-OV-3,86.2%
same,growth inhibition (GI),SR,Active
same,inhibition of growth at 10 µM,NCI-H23,66.7%
same,inhibition of growth at 10 µM,NCI/ADR-RES,95.1%
